Usually mortality stands for the share of the test organisms that died.

Read-outs that look alike come from different tables or passages of the source.

The subject of experiment [1] is Beet Armyworm (BAW) (Spodoptera exigua). Put plainly: Bioassays on Beet Armyworm (BAW), 128-well diet tray assay. The format is in vivo. The settings on record: 168 h, read-out: BAW Rating (% mortality). In outline: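 Second-instar larvae (1–5 per well) on artificial diet surface-treated with 50 μg/cm^2 compound applied in 90:10 acetone-water and dried; eight wells per compound. Held 5–7 days at 25° C., 14:10 light-dark. Percent mortality scored per well and averaged over eight wells.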

The test system of experiment [2] is Corn Earworm (CEW) (Helicoverpa zea). Put plainly: Bioassays on Corn Earworm (CEW), 128-well diet tray assay. The format is in vivo. Particulars: 168 h, read-out: CEW Rating (% mortality). A digest of the protocol:
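Second-instar larvae (one to five per well) placed on artificial diet treated with 50 μg/cm^2 compound in 90:10 acetone-water, dried; eight wells per compound. Held at 25° C, 14:10 light-dark, five to seven days; percent mortality averaged over wells.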

[3] abbreviates: 50 μg/cm^2 test compound on artificial diet, second instar larvae, 25° C., five to seven days, average of eight wells.

`O=C(NCc1ccc(C(F)(F)F)nc1)c1ccc(/C=C/C(c2cc(Cl)c(Cl)c(Cl)c2)C(F)(F)F)cc1Br` (stereo not drawn) [AC75]: the mortality at 50 µg/cm2 in experiment [1] (setting [3]) and in experiment [2] (setting [3]) was 50 to 100% in each case.
Regarding `CS(=O)(=O)c1ncnn1-c1ccc(/C=C/C(c2cc(Cl)cc(Cl)c2)C(F)(F)F)cc1` (stereo not drawn) [DC27], the mortality at 50 µg/cm2 in experiment [1] (setting [3]) and in experiment [2] (setting [3]) was 0% each time.
Regarding `Cc1cc(/C=C/C(c2cc(Cl)cc(Cl)c2)C(F)(F)F)ccc1C(=O)NCc1ncccn1` (stereo not drawn) [AC18], the mortality at 50 µg/cm2 in experiment [1] (setting [3]) and in experiment [2] (setting [3]) was 50 to 100% each time.
For the compound `Cc1cc(/C=C/C(c2cc(Cl)cc(Cl)c2)C(F)(F)F)ccc1C(=O)NCc1cncnc1` (stereo not drawn) [AC39, 4-((E)-3-(3,5-dichlorophenyl)-4,4,4-trifluorobut-1-enyl)-2-methyl-N-((pyrimidin-5-yl)methyl)benzamide], the mortality at 50 µg/cm2 in experiment [1] (setting [3]) and in experiment [2] (setting [3]) was 50 to 100% throughout.
On to `Cc1cc(/C=C/C(c2cc(Cl)cc(Cl)c2)C(F)(F)F)ccc1C(=O)N[C@H]1C[S@@+]([O-])C1` (stereo partly drawn) [AC82], for which the mortality at 50 µg/cm2 in experiment [1] (setting [3]) and in experiment [2] (setting [3]) was 50 to 100% in each case.
For the compound `CCNC(=O)NCc1ccc(/C=C/C(c2cc(Cl)c(Cl)c(Cl)c2)C(F)(F)F)cc1C(F)(F)F` (stereo not drawn) [CC32], the mortality at 50 µg/cm2 in experiment [1] (setting [3]) and in experiment [2] (setting [3]) was 50 to 100% throughout.
For the compound `C=CCNC(=O)CNC(=O)c1ccc(/C=C/C(c2cc(Cl)c(Cl)c(Cl)c2)C(F)(F)F)cc1Br` (stereo not drawn) [AC111], the mortality at 50 µg/cm2 in experiment [1] (setting [3]) and in experiment [2] (setting [3]) was 50 to 100% in each case.
Regarding `O=C(NNc1ccc(/C=C/C(c2cc(Cl)c(Cl)c(Cl)c2)C(F)(F)F)cc1)C1CC1` (stereo not drawn) [CC50, (E)-N′-(4-(4,4,4-trifluoro-3-(3,4,5-trichlorophenyl)but-1-en-1-yl)phenyl)cyclopropanecarbohydrazide], the mortality at 50 µg/cm2 in experiment [1] (setting [3]) and in experiment [2] (setting [3]) was 50 to 100% throughout.
In the case of `FC(F)(F)CNC(=S)CNC(=S)c1ccc(/C=C/C(c2cc(Cl)c(Cl)c(Cl)c2)C(F)(F)F)cc1Br` (stereo not drawn) [AC90, (E)-2-bromo-N-(2-thioxo-2-((2,2,2-trifluoroethyl)amino)ethyl)-4-(4,4,4-trifluoro-3-(3,4,5-trichlorophenyl)but-1-en-1-yl)benzothioamide], the mortality at 50 µg/cm2 in experiment [1] (setting [3]) and in experiment [2] (setting [3]) was 50 to 100% each time.
Regarding `CC(=O)NCc1ccc(/C=C/C(c2cc(Cl)cc(Cl)c2)C(F)(F)F)cc1` (stereo not drawn) [CC1, (E)-N-(4-(3-(3,5-dichlorophenyl)-4,4,4-trifluorobut-1-enyl)benzyl)acetamide], the mortality at 50 µg/cm2 in experiment [1] (setting [3]) and in experiment [2] (setting [3]) was 0% each time.
In the case of `O=C(CC(F)(F)F)NNc1ccc(/C=C/C(c2cc(Cl)c(Cl)c(Cl)c2)C(F)(F)F)cc1` (stereo not drawn) [CC51], the mortality at 50 µg/cm2 in experiment [1] (setting [3]) and in experiment [2] (setting [3]) was 50 to 100% throughout.
For `CC(=O)Nc1cc(/C=C/C(c2cc(Cl)cc(Cl)c2)C(F)(F)F)ccc1-n1cncn1` (stereo not drawn) [DC56], the mortality at 50 µg/cm2 in experiment [1] (setting [3]) and in experiment [2] (setting [3]) was 0% throughout.
Turning to `Fc1ccccc1C(/C=C/c1ccc(-n2cncn2)cc1)C(F)(F)F` (stereo not drawn) [DC10], the mortality at 50 µg/cm2 in experiment [1] (setting [3]) and in experiment [2] (setting [3]) was 0% throughout.
On to `O=C(NCc1ccc(/C=C/C(c2cc(Cl)c(F)c(Cl)c2)C(F)(F)F)cc1Cl)C1CC1` (stereo not drawn) [CC15], for which the mortality at 50 µg/cm2 in experiment [1] (setting [3]) and in experiment [2] (setting [3]) was 50 to 100% in each case.
Regarding `Cc1cc(/C=C/C(c2cc(Cl)cc(Cl)c2)C(F)(F)F)ccc1C(=O)Nc1ccc(Cl)nc1` (stereo not drawn) [AC59], the mortality at 50 µg/cm2 in experiment [1] (setting [3]) and in experiment [2] (setting [3]) was 50 to 100% each time.
Regarding `Cc1cc(/C=C/C(c2cc(Cl)cc(Cl)c2)C(F)(F)F)ccc1C(=O)NC(C)(C)c1ccccn1` (stereo not drawn) [AC16], the mortality at 50 µg/cm2 in experiment [1] (setting [3]) and in experiment [2] (setting [3]) was 50 to 100% throughout.
Consider `CC(C)(C)OC(=O)NCc1ccc(/C=C/C(c2cc(Cl)c(Cl)c(Cl)c2)C(F)(F)F)cc1Cl` (stereo not drawn) [CC39], for which the mortality at 50 µg/cm2 in experiment [1] (setting [3]) and in experiment [2] (setting [3]) was 0% each time.
With `O=C(c1ccc(/C=C/C(c2cc(Cl)cc(Cl)c2)C(F)(F)F)cc1)N1CCOCC1` (stereo not drawn) [AC5], the mortality at 50 µg/cm2 in experiment [1] (setting [3]) and in experiment [2] (setting [3]) was 0% in each case.
For the compound `FC(F)(F)C(/C=C/c1ccc(CNc2ccccn2)c(Cl)c1)c1cc(Cl)c(Cl)c(Cl)c1` (stereo not drawn) [CC43, (E)-N-(2-chloro-4-(4,4,4-trifluoro-3-(3,4,5-trichlorophenyl)but-1-en-1-yl)benzyl)pyridin-2-amine], the mortality at 50 µg/cm2 in experiment [1] (setting [3]) lay within 50 to 100%; in experiment [2] (setting [3]) it was 0 to 50%.
For `O=C(NCC(=S)NCC(F)(F)F)c1ccc(/C=C/C(c2cc(Cl)c(Cl)c(Cl)c2)C(F)(F)F)cc1Br` (stereo not drawn) [AC92, (E)-2-bromo-N-(2-thioxo-2-((2,2,2-trifluoroethyl)amino)ethyl)-4-(4,4,4-trifluoro-3-(3,4,5-trichlorophenyl)but-1-en-1-yl)benzamide] the same measures were 50 to 100% and 50 to 100%.
Taken in the same sequence, the figures for `Cc1cc(C)cc(C(/C=C/c2ccc(-n3cncn3)cc2)C(F)(F)F)c1` (stereo not drawn) [DC11] were 50 to 100% and 0%.
For `FC(F)(F)C(/C=C/c1ccc(-n2cncn2)c(Br)c1)c1cc(Cl)cc(Cl)c1` (stereo not drawn) [DC47] the same measures were 50 to 100% and 50 to 100%.
As to `O=C(CC(F)(F)F)NOc1ccc(/C=C/C(c2cc(Cl)c(Cl)c(Cl)c2)C(F)(F)F)cc1` (stereo not drawn) [CC53], the mortality at 50 µg/cm2 in experiment [1] (setting [3]) and in experiment [2] (setting [3]) was 0% in each case.
In the case of `Cc1cc(/C=C/C(c2cc(Cl)cc(Cl)c2)C(F)(F)F)ccc1C(=O)NCC(F)(F)F` (stereo not drawn) [AC6, (E)-4-(3-(3,5-dichlorophenyl)-4,4,4-trifluorobut-1-enyl)-2-methyl-N-(2,2,2-trifluoroethyl)benzamide], the figures for the mortality at 50 µg/cm2 in experiment [1] (setting [3]) and in experiment [2] (setting [3]) were 0% and 50 to 100%, respectively.
For `CNc1cc(/C=C/C(c2cc(Cl)cc(Cl)c2)C(F)(F)F)ccc1-n1cncn1` (stereo not drawn) [DC57, (E)-5-(3-(3,5-dichlorophenyl)-4,4,4-trifluorobut-1-en-1-yl)-N-methyl-2-(1H-1,2,4-triazol-1-yl)aniline] the same measures were 50 to 100% and 50 to 100%.
Regarding `FC(F)(F)C(/C=C/c1ccc(-n2cncn2)cc1)c1ccccc1` (stereo not drawn) [DC3], the mortality at 50 µg/cm2 in experiment [1] (setting [3]) is 0 to 50%; in experiment [2] (setting [3]), 0%.
For `O=C(CNC(=O)c1ccc(/C=C/C(c2cc(Cl)c(Cl)c(Cl)c2)C(F)(F)F)cc1Br)NCC(F)(F)F` (stereo not drawn) [AC66] the same measures were 50 to 100% and 50 to 100%.
For the compound `N#Cc1cc(/C=C/C(c2cc(Cl)c(Cl)c(Cl)c2)C(F)(F)F)ccc1-n1cnc(NC(=O)C2CC2)n1` (stereo not drawn) [DC43, (E)-N-(1-(2-cyano-4-(4,4,4-trifluoro-3-(3,4,5-trichlorophenyl)but-1-en-1-yl)phenyl)-1H-1,2,4-triazol-3-yl)cyclopropanecarboxamide], the mortality at 50 µg/cm2 in experiment [1] (setting [3]) and in experiment [2] (setting [3]) was 50 to 100% in each case.
As for `N#Cc1cc(/C=C/C(c2cc(Cl)c(Cl)c(Cl)c2)C(F)(F)F)ccc1-n1cnc([N+](=O)[O-])n1` (stereo not drawn) [DC40, (E)-2-(3-nitro-1H-1,2,4-triazol-1-yl)-5-(4,4,4-trifluoro-3-(3,4,5-trichlorophenyl)but-1-en-1-yl)benzonitrile], the mortality at 50 µg/cm2 in experiment [1] (setting [3]) and in experiment [2] (setting [3]) was 50 to 100% in each case.
With `CN(C)C(=O)c1ccc(/C=C/C(c2cc(Cl)cc(Cl)c2)C(F)(F)F)cc1` (stereo not drawn) [AC3], the mortality at 50 µg/cm2 in experiment [1] (setting [3]) and in experiment [2] (setting [3]) was 0% each time.
Take `CCNC(=S)NC1CCc2cc(/C=C/C(c3cc(Cl)c(Cl)c(Cl)c3)C(F)(F)F)ccc21` (stereo not drawn) [BC2]: the mortality at 50 µg/cm2 in experiment [1] (setting [3]) and in experiment [2] (setting [3]) was 50 to 100% throughout.
With `O=C(CC(F)(F)F)NCc1ccc(/C=C/C(c2cc(Cl)c(F)c(Cl)c2)C(F)(F)F)cc1` (stereo not drawn) [CC16], the mortality at 50 µg/cm2 in experiment [1] (setting [3]) and in experiment [2] (setting [3]) was 50 to 100% in each case.
For the compound `O=C(NCc1ccc(/C=C/C(c2cc(Cl)c(Cl)c(Cl)c2)C(F)(F)F)cc1Cl)Oc1ccccc1Cl` (stereo not drawn) [CC40], the values for the mortality at 50 µg/cm2 in experiment [1] and in experiment [2] were 0% and 50 to 100%, respectively.
Turning to `Cc1cc(/C=C/C(c2cc(Cl)cc(Cl)c2)C(F)(F)F)ccc1C(=O)NCc1nc2ccccc2s1` (stereo not drawn) [AC42], the mortality at 50 µg/cm2 in experiment [1] (setting [3]) was 50 to 100%; in experiment [2] (setting [3]) it was 0%.
Taken in the same sequence, the figures for `O=C(NC1CSC1)c1ccc(/C=C/C(c2cc(Cl)c(Cl)c(Cl)c2)C(F)(F)F)cc1Cl` (stereo not drawn) [AC29] were 50 to 100% and 50 to 100%.
For `Cc1cc(/C=C/C(c2cc(Cl)cc(Cl)c2)C(F)(F)F)ccc1C(=O)NCC(=O)NC1CSC1` (stereo not drawn) [AC41] the same measures were 50 to 100% and 0%.
For `CN1CCC(NC(=O)c2ccc(/C=C/C(c3cc(Cl)c(Cl)c(Cl)c3)C(F)(F)F)cc2Br)CC1` (stereo not drawn) [AC106, (E)-2-bromo-N-(1-methylpiperidin-4-yl)-4-(4,4,4-trifluoro-3-(3,4,5-trichlorophenyl)but-1-en-1-yl)benzamide] the same measures were 50 to 100% and 50 to 100%.
`COc1c(Cl)cc(C(/C=C/c2ccc(-n3cncn3)c(C#N)c2)C(F)(F)F)cc1Cl` (stereo not drawn) [DC34]: the mortality at 50 µg/cm2 in experiment [1] (setting [3]) and in experiment [2] (setting [3]) was 50 to 100% throughout.
Regarding `CN(C)C(=O)NCc1ccc(/C=C/C(c2cc(Cl)c(Cl)c(Cl)c2)C(F)(F)F)cc1Cl` (stereo not drawn) [CC36, (E)-3-(2-chloro-4-(4,4,4-trifluoro-3-(3,4,5-trichlorophenyl)but-1-en-1-yl)benzyl)-1,1-dimethylurea], the mortality at 50 µg/cm2 in experiment [1] (setting [3]) and in experiment [2] (setting [3]) was 50 to 100% throughout.

These data come from patent publication US9615576B2, “Pesticidal compositions and processes related thereto” (Dow AgroSciences LLC, priority 2011, dated 2017).
